Measured values reported in US5977133A, “Pyridone antibiotic with improved safety profile” (priority 1998, dated 1999).
Counter-ions that a name gives are not always drawn.

Tested on: bacteria
Experiment: In vitro antibacterial activity (overall statement)
Type: cell-based
Conditions: ciprofloxacin resistant strains

SMILES: CN[C@@H]1CN(c2c(F)cn3c(=O)c(C(=O)O)cc(C4CC4)c3c2C)CC12CC2 [Example 1, 1-cyclopropyl-8-(7(S)-N-methylamino-5-azaspiro[2.4]heptyl)-7-fluoro-9-methyl-4-oxo-4H-guinolizine-3-carboxylic acid hydrochloride]
- activity against ciprofloxacin resistant strains in words: highly active against ciprofloxacin resistant strains
